This note sets out measurements from EP0445731B1 (priority 1990, dated 1991).

Molecules are shown by their SMILES. Where a name gives a salt, the structure may show the parent alone. Read-outs that look alike come from different tables or passages of the source.

The target of test [1] is muscarinic binding site. The experiment in a line: RCMD screening assay: inhibition of binding of radiolabeled cis-methyldioxolane (muscarinic agonist) to rat cerebral cortex tissue. The settings on record: read-out: IC₅nM RCMD. The protocol: Similarly, in the RCMD screening assay, described more fully by T. W. Vickeroy, et al, 229(3):747 (1984), rat cerebral cortex tissue was treated with radiolabeled cis-methyldioxolane, a known muscarinic binding site agonist. The concentrations of test compounds required to inhibit 50% of the binding of this muscarinic agonist were then determined. […]

Test [2] concerns the target muscarinic binding site. As to conditions: rat cerebral cortex tissue, radiolabeled quinuclidinyl benzilate, read-out: IC₅₀nM RQNB.

For the compound `C=CC=CCON=C1CN2CCC1C2` (single isomer, unassigned) [28 (Isomer A), 1-Azabicyclo[2.2.1]-heptan-3-one, O-(2,4-pentadienyl)oxime hydrochloride], the IC50 at muscarinic binding site [1] (hydrochloride) amounted to 0.0129 µM; at muscarinic binding site [2] (hydrochloride), 0.434 µM.

Regarding `c1ccc(CON=C2CN3CCC2C3)cc1` (centres unmarked) [Example 5, 1-Azabicyclo[2.2.1]-heptan-3-one, O-(phenylmethyl)oxime hydrochloride], the figures for the IC50 on muscarinic binding site [1] and on muscarinic binding site [2] were 0.133 µM and 5.95 µM, respectively.

With `CCON=C1CN2CCC1C2` (centres unmarked) [Example 2, 1-Azabicyclo[2.2.1]hept-3-one, O-ethyloxime hydrochloride], the IC50 at muscarinic binding site [1] was found to be 0.0125 µM; at muscarinic binding site [2] it was 3.11 µM.

With `CON=C1CN2CCC1C2` (centres unmarked) [Example 3, 1-Azabicyclo[2.2.1]heptan-3-one, O-methyloxime hydrochloride], the IC50 is 0.0182 µM on muscarinic binding site [1] and 24.6 µM at muscarinic binding site [2].

In the case of `N#CCON=C1CN2CCC1C2` (centres unmarked) [Example 27, {[(1-Azabicyclo[2.2.1]-heptan-3-ylidene)amino]-oxy}acetonitrile hydrochloride], the IC50 came out at 0.116 µM at muscarinic binding site [1] and 8.82 µM at muscarinic binding site [2].

For `CC(C)ON=C1CN2CCC1C2` (centres unmarked) [Example 7, 1-Azabicyclo[2.2.1]-heptan-3-one, O-(1-methylethyl)oxime hydrochloride], the IC50 at muscarinic binding site [1] came out at 0.046 µM; on muscarinic binding site [2], 2.03 µM.

For the compound `C#CCON=C1CN2CCC1C2` (centres unmarked) [Example 4, 1-Azabicyclo[2.2.1]-heptan-3-one, O-(2-propynyl)oxime hydrochloride], the IC50 at muscarinic binding site [1] worked out at 0.0035 µM; at muscarinic binding site [2] it was 2.97 µM.

Consider `C=CC=CCON=C1CN2CCC1C2` (single isomer, unassigned) [28 (Isomer B), 1-Azabicyclo[2.2.1]-heptan-3-one, O-(2,4-pentadienyl)oxime hydrochloride], for which the IC50 at muscarinic binding site [1] (hydrochloride) stood at 0.256 µM; on muscarinic binding site [2] (hydrochloride), 9.65 µM.

On to `CCCON=C1CN2CCC1C2` (centres unmarked) [Example 6, 1-Azabicyclo[2.2.1]-heptan-3-one, O-propyloxime hydrochloride], for which the IC50 amounted to 0.12 µM on muscarinic binding site [1] and 3.85 µM on muscarinic binding site [2].

As for `C=CCON=C1CN2CCC1C2` (centres unmarked) [Example 8, 1-Azabicyclo[2.2.1]-heptan-3-one, O-(2-propenyl)oxime oxalate], the IC50 at muscarinic binding site [1] came to 0.053 µM; at muscarinic binding site [2], 4.78 µM.
